Tests used:
α1β2γ2S GABAA receptors = biological target: T1, α1β2γ2S GABAA receptors (Homo sapiens, UniProt P14867+P47870); assay: Two-microelectrode voltage clamp, IGABA modulation, α1β2γ2S; type: cell-based; conditions: for nH: Hill coefficient of concentration–response curve; for EC50: IGABA enhancement, GABA EC3–7, Xenopus oocytes
T1 construct: expressed in transfected cells; host or cells: Xenopus laevis oocytes injected with cRNA (pCMV cDNA templates)
Method: (§1) Preparation of stage V–VI oocytes from X. laevis and synthesis of capped runoff poly(A) cRNA transcripts from linearized cDNA templates (pCMV vector) was performed as previously described.[49] […] Follicle membranes from isolated oocytes were enzymatically digested with 2 mg/mL collagenase (type 1A, Sigma–Aldrich, Vienna, Austria).
(§2) Selected oocytes were injected with 10–50 nL of DEPC-treated water (diethyl pyrocarbonate, Sigma, Vienna, Austria) containing the different GABAA cRNAs at a concentration of approximately 300–3000 pg·nL^–1·subunit^–1.
(§3) To ensure expression of the γ2S subunit in the case of α1/2/3/5β2/3γ2S receptors, cRNAs were mixed in a ratio of 1:1:10. […] The amount of cRNAs was determined by means of a NanoDrop ND-1000 (Kisker-Biotech, Steinfurt, Germany).
(§4) Oocytes were stored at +18 °C in modified ND96 solution (90 mM NaCl, 1 mM CaCl2, 1 mM KCl, 1 mM MgCl2·6H2O, and 5 mM HEPES [4-(2-hydroxyethyl)-1-piperazineethanesulfonic acid], pH 7.4, all from Sigma–Aldrich, Vienna, Austria).
(§5) Chloride currents through GABAA receptors (IGABA) were measured at room temperature (+21 ± 1 °C) by means of a two-microelectrode voltage clamp technique making use of a Turbo TEC-05X amplifier (npi electronic, Tamm, Germany). IGABA were elicited at a holding potential of –70 mV. Data acquisition was carried out by means of an Axon Digidata 1322A interface using pCLAMP v.10 (Molecular Devices, Sunnyvale, CA). The modified ND96 solution was used as bath solution.
(§6) GABA and the studied derivatives were applied by means of the ScreeningTool (npi electronic, Tamm, Germany) fast perfusion system as described previously.[50] To elicit IGABA, the chamber was perfused with 120 μL of GABA- or compound-containing solution at a volume rate of 300 μL/s.[34] Care was taken to account for possible slow recovery from increasing levels of desensitization in the presence of high drug concentrations. The duration of washout periods was therefore extended from 1.5 min (<10 μM compounds) to 30 min (≥10 μM compounds). Oocytes with maximal current amplitudes >3 μA were discarded to exclude voltage clamp errors.
(§7) Stimulation of chloride currents by modulators of the GABAA receptor was measured at a GABA concentration eliciting between 3% and 7% of the maximal current amplitude (EC3–7). The GABA EC3–7 was determined for each oocyte individually. Enhancement of the chloride current was defined as (IGABA+compd/IGABA) – 1, where IGABA+compd is the current response in the presence of a given compound and IGABA is the control GABA current. IGABA-max reflects the maximal IGABA enhancement. Concentration–response curves were generated and the data were fitted by nonlinear regression analysis using Origin Software (OriginLab Corp.). Data were fitted to the equation 1/(1 + (EC50/[compound])^nH), where nH is the Hill coefficient. […] Statistical significance was calculated by paired Student t-test with a confidence interval of <0.05.

α1β1γ2S GABAA receptors = biological target: T2, α1β1γ2S GABAA receptors (Homo sapiens, UniProt P14867+P18505); assay: Two-microelectrode voltage clamp, IGABA modulation, α1β1γ2S; type: cell-based; conditions: for nH: Hill coefficient
T2 construct: expressed in transfected cells; host or cells: Xenopus laevis oocytes injected with cRNA (pCMV cDNA templates)
T2 sequence (P14867 28-456): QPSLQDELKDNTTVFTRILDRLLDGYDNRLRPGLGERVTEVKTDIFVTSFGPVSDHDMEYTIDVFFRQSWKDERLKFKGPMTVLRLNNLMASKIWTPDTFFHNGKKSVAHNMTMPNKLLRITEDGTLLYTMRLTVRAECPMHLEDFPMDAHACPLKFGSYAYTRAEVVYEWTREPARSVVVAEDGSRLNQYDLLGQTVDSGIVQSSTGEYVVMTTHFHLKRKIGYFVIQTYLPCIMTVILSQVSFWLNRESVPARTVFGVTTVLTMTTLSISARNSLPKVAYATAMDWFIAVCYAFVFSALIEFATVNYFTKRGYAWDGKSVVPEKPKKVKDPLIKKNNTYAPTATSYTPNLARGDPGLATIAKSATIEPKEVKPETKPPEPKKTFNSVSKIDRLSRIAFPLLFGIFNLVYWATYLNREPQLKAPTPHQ
T2 sequence (P18505 26-474): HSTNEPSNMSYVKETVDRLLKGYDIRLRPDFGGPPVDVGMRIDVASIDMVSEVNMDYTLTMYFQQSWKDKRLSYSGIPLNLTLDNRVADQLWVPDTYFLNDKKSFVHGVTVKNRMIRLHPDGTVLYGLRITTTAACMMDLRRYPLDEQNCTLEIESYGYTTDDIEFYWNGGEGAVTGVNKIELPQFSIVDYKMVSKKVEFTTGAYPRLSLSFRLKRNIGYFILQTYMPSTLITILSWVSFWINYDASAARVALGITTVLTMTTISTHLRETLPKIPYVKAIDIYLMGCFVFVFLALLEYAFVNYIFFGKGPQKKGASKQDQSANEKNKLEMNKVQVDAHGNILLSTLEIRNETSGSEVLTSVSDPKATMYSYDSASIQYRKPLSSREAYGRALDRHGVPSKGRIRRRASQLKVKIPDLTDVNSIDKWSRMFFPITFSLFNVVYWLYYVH
T2 sequence (P18507 40-467 isoform P18507-1 partner limits assumed): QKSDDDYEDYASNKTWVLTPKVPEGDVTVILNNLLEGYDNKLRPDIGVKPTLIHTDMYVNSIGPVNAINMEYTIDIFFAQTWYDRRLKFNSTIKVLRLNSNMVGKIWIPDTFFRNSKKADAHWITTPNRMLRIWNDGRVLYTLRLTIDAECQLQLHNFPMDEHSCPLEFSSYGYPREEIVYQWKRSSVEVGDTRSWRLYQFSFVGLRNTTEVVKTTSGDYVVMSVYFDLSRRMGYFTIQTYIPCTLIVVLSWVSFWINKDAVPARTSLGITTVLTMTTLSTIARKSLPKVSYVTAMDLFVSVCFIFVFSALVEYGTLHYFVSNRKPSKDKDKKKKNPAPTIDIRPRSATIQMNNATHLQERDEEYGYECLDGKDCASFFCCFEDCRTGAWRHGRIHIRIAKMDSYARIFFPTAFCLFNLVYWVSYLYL
Method: as §1, §2, §3, §4, §5, §6
as §7, with “enhancement.” for “enhancement. Concentration–response curves were generated and the data were fitted by nonlinear regression analysis using Origin Software (OriginLab Corp.). Data were fitted to the equation 1/(1 + (EC50/[compound])^nH), where nH is the Hill coefficient.”

male C57BL/6N mice [1] = assay: Elevated plus maze test; type: in vivo; conditions: for time spent in open arms (OA) as percentage of total time: 30 min after application, EPM; for effect in the EPM test: ip, 30 min before test
Method: (§8) Male mice (C57BL/6N) were obtained from Charles River Laboratories (Sulzfeld, Germany). For maintenance, mice were group-housed (maximum five mice per type IIL cage) with free access to food and water. At least 24 h before the commencement of experiments, mice were transferred to the testing facility, where they were given free access to food and water. The temperature in the maintenance and testing facilities was 23 ± 1 °C; the humidity was 40–60%; a 12 h light–dark cycle was in operation (lights on from 07:00 to 19:00). Only male mice aged 3–6 months were tested.
(§9) Compounds were applied by intraperitoneal (ip) injection 30 min before each test. Testing solutions were prepared in a solvent composed of 0.9% NaCl solution with 10% dimethyl sulfoxide (DMSO) and 3% Tween 80. […] All doses are indicated as milligrams per kilogram of body weight of the animal.
The animals’ behavior was tested over 5 min on an elevated plus maze 1 m above ground consisting of two closed and two open arms, each 50 × 5 cm in size. The test instrument was built from gray PVC; the height of closed arm walls was 20 cm. Illumination was set to 180 Lux. Animals were placed in the center, facing an open arm. Analysis of open and closed arm entries and time on open arm was automatically done with Video-Mot 2 equipment and software (TSE Systems, Bad Homburg, Germany).[34]

male C57BL/6N mice [2] = assay: Open field test; type: in vivo; conditions: ip, total ambulation
Method: as §8, §9
Ambulation was tested over 10 min in a 50 × 50 cm flexfield box equipped with infrared rearing detection. Illumination was set to 150 Lux. The animals’ explorative behavior was analyzed by use of the ActiMot 2 equipment and software (TSE-systems, Bad Homburg, Germany). Arenas were subdivided into border (up to 8 cm from wall), center (20 × 20 cm, 16% of total area), and intermediate area according to the recommendations of EMPRESS (European Mouse Phenotyping Resource of Standardised Screens; http://empress.har.mrc.ac.uk).

α3β2γ2S GABAA receptors = biological target: T3, α3β2γ2S GABAA receptors (Homo sapiens, UniProt P34903+P47870); assay: Two-microelectrode voltage clamp, IGABA modulation, α3β2γ2S; type: cell-based; conditions: for nH: Hill coefficient
T3 construct: expressed in transfected cells; host or cells: Xenopus laevis oocytes injected with cRNA (pCMV cDNA templates)
T3 sequence (P34903 29-492): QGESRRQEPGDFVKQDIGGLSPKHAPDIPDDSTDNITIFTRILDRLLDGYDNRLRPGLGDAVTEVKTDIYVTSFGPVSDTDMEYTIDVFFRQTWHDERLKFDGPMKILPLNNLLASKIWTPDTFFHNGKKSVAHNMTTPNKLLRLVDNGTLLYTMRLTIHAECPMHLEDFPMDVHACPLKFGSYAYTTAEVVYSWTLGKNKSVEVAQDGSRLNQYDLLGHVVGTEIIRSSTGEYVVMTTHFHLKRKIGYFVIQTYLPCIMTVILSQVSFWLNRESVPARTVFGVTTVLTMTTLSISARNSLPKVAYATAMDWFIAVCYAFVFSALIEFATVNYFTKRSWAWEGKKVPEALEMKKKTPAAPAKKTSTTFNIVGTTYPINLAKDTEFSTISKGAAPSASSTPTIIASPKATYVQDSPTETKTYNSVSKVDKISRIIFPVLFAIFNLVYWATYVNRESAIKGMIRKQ
T3 sequence (P47870 26-512): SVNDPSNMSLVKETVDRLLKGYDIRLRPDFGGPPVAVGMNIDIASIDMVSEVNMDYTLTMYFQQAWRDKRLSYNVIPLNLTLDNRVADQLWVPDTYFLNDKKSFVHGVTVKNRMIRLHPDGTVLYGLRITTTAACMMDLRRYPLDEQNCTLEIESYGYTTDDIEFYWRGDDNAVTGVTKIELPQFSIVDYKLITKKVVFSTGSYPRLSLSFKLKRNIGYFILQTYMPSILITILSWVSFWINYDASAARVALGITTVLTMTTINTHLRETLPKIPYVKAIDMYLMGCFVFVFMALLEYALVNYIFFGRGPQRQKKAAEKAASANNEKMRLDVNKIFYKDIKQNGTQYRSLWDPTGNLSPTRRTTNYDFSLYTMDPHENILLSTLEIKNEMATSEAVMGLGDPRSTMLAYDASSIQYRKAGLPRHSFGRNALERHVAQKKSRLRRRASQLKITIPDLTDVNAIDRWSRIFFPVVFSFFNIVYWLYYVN
T3 sequence (P18507 40-467 isoform P18507-1 partner limits assumed): as the sequence (P18507 40-467 isoform P18507-1 partner limits assumed) above
Method: as §1, §2, §3, §4, §5, §6
as §7, with “enhancement.” for “enhancement. Concentration–response curves were generated and the data were fitted by nonlinear regression analysis using Origin Software (OriginLab Corp.). Data were fitted to the equation 1/(1 + (EC50/[compound])^nH), where nH is the Hill coefficient.”

α5β2γ2S GABAA receptors = biological target: T4, α5β2γ2S GABAA receptors (Homo sapiens, UniProt P31644+P47870); assay: Two-microelectrode voltage clamp, IGABA modulation, α5β2γ2S; type: cell-based; conditions: for nH: Hill coefficient
T4 construct: expressed in transfected cells; host or cells: Xenopus laevis oocytes injected with cRNA (pCMV cDNA templates)
T4 sequence (P31644 32-462): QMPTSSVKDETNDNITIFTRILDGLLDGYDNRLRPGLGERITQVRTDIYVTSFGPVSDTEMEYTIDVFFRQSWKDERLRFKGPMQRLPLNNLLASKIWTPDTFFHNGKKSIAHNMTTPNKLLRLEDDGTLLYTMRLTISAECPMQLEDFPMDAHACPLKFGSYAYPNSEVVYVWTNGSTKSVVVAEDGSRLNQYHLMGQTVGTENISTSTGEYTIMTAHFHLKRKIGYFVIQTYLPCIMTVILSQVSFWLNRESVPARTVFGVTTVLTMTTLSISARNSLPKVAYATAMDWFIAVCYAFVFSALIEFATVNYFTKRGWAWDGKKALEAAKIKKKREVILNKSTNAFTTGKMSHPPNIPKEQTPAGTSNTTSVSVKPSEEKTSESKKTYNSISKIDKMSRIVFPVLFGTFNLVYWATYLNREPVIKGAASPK
T4 sequence (P47870 26-512): as the sequence (P47870 26-512) above
T4 sequence (P18507 40-467 isoform P18507-1 partner limits assumed): as the sequence (P18507 40-467 isoform P18507-1 partner limits assumed) above
Method: as §1, §2, §3, §4, §5, §6
as §7, with “enhancement.” for “enhancement. Concentration–response curves were generated and the data were fitted by nonlinear regression analysis using Origin Software (OriginLab Corp.). Data were fitted to the equation 1/(1 + (EC50/[compound])^nH), where nH is the Hill coefficient.”

T1 sequence (P14867 28-456): as the sequence (P14867 28-456) above
T1 sequence (P47870 26-512): as the sequence (P47870 26-512) above
T1 sequence (P18507 40-467 isoform P18507-1 partner limits assumed): as the sequence (P18507 40-467 isoform P18507-1 partner limits assumed) above

Row | Structure (SMILES) | nH (α1β2γ2S GABAA receptors) | EC50 (α1β2γ2S GABAA receptors) [µM] | EC50 (α1β1γ2S GABAA receptors) [µM] | nH (α1β1γ2S GABAA receptors) | time spent in open arms (OA) as percentage of total time (male C57BL/6N mice [1]; 0.3 mg/kg ip) | effect in the EPM test (male C57BL/6N mice [1]) | sedation in the OF test (male C57BL/6N mice [2]) | EC50 (α3β2γ2S GABAA receptors) [µM] | nH (α3β2γ2S GABAA receptors) | EC50 (α5β2γ2S GABAA receptors) [µM] | nH (α5β2γ2S GABAA receptors) | time spent in open arms (OA) as percentage of total time (male C57BL/6N mice [1]; 3 mg/kg ip)
1 | CCCN(CCC)C(=O)/C=C/C=C/c1ccc2c(c1)OCO2 [Compound 23, (2E,4E)-5-(1,3-benzodioxol-5-yl)-N,N-dipropyl-2,4-pentadienamide] | 3.1 ± 0.8 | 51.7 ± 9.5 | 57.5 ± 7.3 | 1.8 ± 0.1 | 45.6% ± 3.2% | anxiolytic effects | little sedation | 36.6 ± 7.2 | 1.9 ± 0.3 | 61.9 ± 10.4 | 1.4 ± 0.1 | –
2 | CCCCN(CCCC)C(=O)/C=C/C=C/c1ccc2c(c1)OCO2 [Compound 25, (2E,4E)-5-(1,3-Benzodioxol-5-yl)-N,N-dibutyl-2,4-pentadienamide] | 1.8 ± 0.1 | 13.8 ± 1.8 | 15.9 ± 4.9 | 1.3 ± 0.6 | 39.8% ± 4.1% | anxiolytic effects | little sedation | 16 ± 2.7 | 1.8 ± 0.1 | 17.2 ± 1.4 | 1.7 ± 0.2 | 43.9% ± 4.3%

From publication PMC4106271 (Journal of Medicinal Chemistry, 2014)
